Source: patent US9586951B2 (FUJIFILM Corporation, priority 2013, dated 2017)

Key:
ATM = molecular target: T1, ATM (Homo sapiens, UniProt Q13315); test: ATM inhibition test (phosphorylation of Chk2 generated by ionizing radiation, AlphaScreen SureFire); format: cell-based; conditions: phosphorylated Chk2 in NCI-H460 cells, ionizing radiation 8Gy, 1 hour after test compound treatment; read-out: ATM inhibitory activity
T1 construct: detecting phosphorylation of Chk2 in a human non-small cell lung cancer cell line NCI-H460 (ATCC company); host or cells: NCI-H460 human non-small cell lung cancer cells
Outline: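 Phosphorylated Chk2 read by AlphaScreen SureFire in human non-small cell lung cancer NCI-H460 cells, 1 hour after 8Gy ionizing radiation at 37° C. Compound added 1 hour before irradiation. Percent inhibition normalised between irradiated and non-irradiated drug-untreated signals.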

[1] = system: human non-small cell lung cancer cell line NCI-H460; test: Cell proliferation inhibition test by sensitivity-enhancing to ionizing radiation (Cell Titer Glo); format: cell-based; conditions: concentration in which SER became 2, NCI-H460 cells, ionizing radiation 2 Gy, cultured 120 hour
Procedure: A human non-small cell lung cancer cell line NCI-H460 (ATCC company) was adjusted so as to be 2×10^3 cells/mL in a RPMI-1640 medium containing penicillin/streptomycin and FBS having a final concentration of 10%, and this was seeded by 100 μL per well in 96-well CellBIND® plates (Corning International Inc.). After 24 hours, the medium of cells was replaced with 100 μL of a medium including serially diluted liquid of the test compound or DMSO having a final concentration of 0.1%. 30 minutes after the medium was replaced, half of the plates were irradiated with ionizing radiation 2 Gy (Faxitron Bioptics, LLC, RX-650 type). The cells of the plates irradiated with ionizing radiation and the plates not being irradiated with ionizing radiation were cultured at 37° C. for 120 hour in 5% CO2. After a Cell Titer Glo reaction liquid of an equal volume was added to each well, the amount of luminescence was measured, according to the instruction book of Cell Titer Glo (Promega Corporation). Since the amount of luminescence is proportional to the ATP concentration in cells, the amount of luminescence was used as an indicator of the number of viable cells. Sensitivity-enhancing effects (SER) to ionizing radiation by the test compound was calculated by the following equation. SER=(amount of luminescence of wells including DMSO having a final concentration of 0.1% in the plates irradiated with ionizing radiation×amount of luminescence of wells including a compound in the plates not being irradiated with ionizing radiation)/(amount of luminescence of wells including the test compound in the plates irradiated with ionizing radiation×amount of luminescence of wells including DMSO having a final concentration of 0.1% in the plates not being irradiated with ionizing radiation)
SER at each compound concentration was plotted by nonlinear regression fit (FitModel (205)) by a sigmoidal dose-response equation using XLfit software (IDBS), and the concentration (SER2) in which SER became 2 was calculated.

T1 sequence (Q13315 whole entry): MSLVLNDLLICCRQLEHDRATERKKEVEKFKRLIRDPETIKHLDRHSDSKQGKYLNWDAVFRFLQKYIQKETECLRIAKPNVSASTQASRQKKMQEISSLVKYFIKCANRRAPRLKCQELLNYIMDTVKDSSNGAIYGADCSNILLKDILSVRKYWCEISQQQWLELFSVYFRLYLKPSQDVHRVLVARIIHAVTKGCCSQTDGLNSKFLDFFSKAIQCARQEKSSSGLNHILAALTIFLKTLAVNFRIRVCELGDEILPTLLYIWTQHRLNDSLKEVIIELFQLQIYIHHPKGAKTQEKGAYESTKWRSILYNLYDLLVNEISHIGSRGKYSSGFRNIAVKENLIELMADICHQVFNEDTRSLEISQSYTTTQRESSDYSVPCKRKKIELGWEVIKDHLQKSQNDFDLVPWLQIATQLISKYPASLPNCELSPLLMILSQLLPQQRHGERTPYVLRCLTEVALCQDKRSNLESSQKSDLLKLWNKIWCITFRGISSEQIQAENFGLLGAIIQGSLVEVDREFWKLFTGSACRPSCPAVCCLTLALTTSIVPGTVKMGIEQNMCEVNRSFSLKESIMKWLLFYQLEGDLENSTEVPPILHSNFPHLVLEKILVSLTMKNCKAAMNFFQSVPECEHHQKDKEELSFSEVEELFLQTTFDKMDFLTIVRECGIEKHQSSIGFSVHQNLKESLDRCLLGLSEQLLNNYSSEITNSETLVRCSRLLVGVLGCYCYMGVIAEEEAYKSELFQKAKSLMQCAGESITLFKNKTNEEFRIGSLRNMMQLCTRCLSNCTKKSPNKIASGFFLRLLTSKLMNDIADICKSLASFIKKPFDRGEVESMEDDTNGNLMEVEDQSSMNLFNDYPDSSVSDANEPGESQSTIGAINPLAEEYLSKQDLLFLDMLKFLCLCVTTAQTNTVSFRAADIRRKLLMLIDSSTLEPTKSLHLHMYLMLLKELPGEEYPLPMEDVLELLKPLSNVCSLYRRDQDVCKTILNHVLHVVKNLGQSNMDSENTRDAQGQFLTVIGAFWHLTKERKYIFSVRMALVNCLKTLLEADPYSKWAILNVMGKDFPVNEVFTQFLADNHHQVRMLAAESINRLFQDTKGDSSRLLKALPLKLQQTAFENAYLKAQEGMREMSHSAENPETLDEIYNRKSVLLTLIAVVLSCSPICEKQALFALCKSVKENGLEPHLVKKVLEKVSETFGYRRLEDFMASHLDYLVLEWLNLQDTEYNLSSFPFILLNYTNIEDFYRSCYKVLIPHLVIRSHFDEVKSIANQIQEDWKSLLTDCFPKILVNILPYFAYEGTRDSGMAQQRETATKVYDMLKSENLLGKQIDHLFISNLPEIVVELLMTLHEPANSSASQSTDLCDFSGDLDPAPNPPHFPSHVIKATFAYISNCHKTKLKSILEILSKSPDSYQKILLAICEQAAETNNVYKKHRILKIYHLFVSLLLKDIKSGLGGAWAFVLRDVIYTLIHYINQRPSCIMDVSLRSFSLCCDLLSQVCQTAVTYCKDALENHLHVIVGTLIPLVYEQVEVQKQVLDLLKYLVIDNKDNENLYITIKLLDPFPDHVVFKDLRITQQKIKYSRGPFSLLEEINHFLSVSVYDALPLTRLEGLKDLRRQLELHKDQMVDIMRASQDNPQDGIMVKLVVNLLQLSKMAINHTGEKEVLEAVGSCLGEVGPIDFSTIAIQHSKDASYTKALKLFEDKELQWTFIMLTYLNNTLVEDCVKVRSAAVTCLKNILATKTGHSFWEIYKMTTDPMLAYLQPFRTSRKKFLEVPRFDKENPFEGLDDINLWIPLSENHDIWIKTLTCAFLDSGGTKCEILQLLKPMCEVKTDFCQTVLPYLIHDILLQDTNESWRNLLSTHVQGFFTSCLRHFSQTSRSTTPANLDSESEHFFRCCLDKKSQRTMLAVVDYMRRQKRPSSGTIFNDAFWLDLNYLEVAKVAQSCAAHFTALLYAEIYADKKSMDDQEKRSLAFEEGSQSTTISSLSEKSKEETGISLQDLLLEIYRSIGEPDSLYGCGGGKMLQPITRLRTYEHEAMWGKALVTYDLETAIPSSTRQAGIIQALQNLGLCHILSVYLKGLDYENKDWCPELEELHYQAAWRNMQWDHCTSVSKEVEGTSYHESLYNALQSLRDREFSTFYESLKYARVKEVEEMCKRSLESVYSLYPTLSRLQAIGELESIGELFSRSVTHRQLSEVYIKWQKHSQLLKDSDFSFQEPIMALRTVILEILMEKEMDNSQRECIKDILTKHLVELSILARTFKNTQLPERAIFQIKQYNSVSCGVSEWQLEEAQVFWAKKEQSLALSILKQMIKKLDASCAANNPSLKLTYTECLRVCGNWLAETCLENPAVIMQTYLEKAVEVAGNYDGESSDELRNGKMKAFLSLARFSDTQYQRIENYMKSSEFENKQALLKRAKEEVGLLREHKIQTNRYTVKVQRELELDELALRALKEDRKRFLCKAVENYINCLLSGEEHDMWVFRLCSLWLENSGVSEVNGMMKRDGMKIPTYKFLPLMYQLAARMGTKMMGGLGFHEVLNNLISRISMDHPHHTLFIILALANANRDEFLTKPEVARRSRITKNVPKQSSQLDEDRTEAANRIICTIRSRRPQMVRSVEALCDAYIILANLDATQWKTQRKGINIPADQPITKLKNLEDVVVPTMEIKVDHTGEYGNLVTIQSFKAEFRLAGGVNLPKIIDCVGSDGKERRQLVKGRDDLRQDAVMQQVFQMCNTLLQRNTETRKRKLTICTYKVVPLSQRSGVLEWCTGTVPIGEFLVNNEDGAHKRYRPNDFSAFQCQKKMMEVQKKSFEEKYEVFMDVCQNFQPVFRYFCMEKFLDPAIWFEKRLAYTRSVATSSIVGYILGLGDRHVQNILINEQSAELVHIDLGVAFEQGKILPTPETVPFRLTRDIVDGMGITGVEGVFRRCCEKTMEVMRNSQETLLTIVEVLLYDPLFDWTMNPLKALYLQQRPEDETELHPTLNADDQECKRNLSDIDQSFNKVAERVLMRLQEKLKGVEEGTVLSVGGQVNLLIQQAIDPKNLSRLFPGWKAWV

Row | Structure (SMILES) | IC50 (ATM) [nM] | IC50 ([1]; Homo sapiens, NCI-H460, 120 h, read-out: SER2) [nM] | SER2 (concentration at which the radiation sensitivity-enhancement ratio reaches 2) ([1]; Homo sapiens, NCI-H460, 120 h) [nM] | SER2 (concentration at which the radiation sensitivity-enhancement ratio reaches 2) [1] [nM]
1 | Cc1cc(C(C)Nc2ccc3c(c2)Sc2cccc(-c4cc(N5CCOCC5)cc(=O)[nH]4)c2S3)ncn1 (stereo not shown) [Example 1-12-75, 6-(7-((1-(6-Methylpyrimidin-4-yl)ethyl)amino)thianthren-1-yl)-4-morpholino pyridin-2 (1H)-one] | < 100 | – | 100 to 500 | –
2 | O=c1cc(N2CCOCC2)cc(-c2cccc3c2Sc2ccc(NCCN4C5CCC4COC5)cc2S3)[nH]1 [Example 1-10-5, 6-(7-((2-(3-oxa-8-azabicyclo[3.2.1]octan-8-yl)ethyl)amino)thianthren-1-yl)-4-morpholinopyridin-2(1H)-one] | < 100 | – | 100 to 500 | –
3 | CC(CCN1CCOCC1)Nc1ccc2c(c1)Sc1cccc(-c3cc(N4CCOCC4)cc(=O)[nH]3)c1S2 (stereo not shown) [Example 1-42-1, 4-Morpholino-6-(7-((4-morpholinobutan-2-yl)amino)thianthren-1-yl)pyridin-2(1H)-one] | < 100 | – | 100 to 500 | –
4 | COc1cccc(C(CO)Nc2ccc3c(c2)Sc2cccc(-c4cc(N5CCOCC5)cc(=O)[nH]4)c2S3)n1 (stereo not shown) [Example 1-12-132, 6-(7-((2-Hydroxy-1-(6-methoxypyridin-2-yl)ethyl)amino)thianthren-1-yl)-4-morpholino pyridin-2(1H)-one] | < 100 | – | 100 to 500 | –
5 | CCN(C)CCC(Nc1ccc2c(c1)Sc1cccc(-c3cc(N4CCOCC4)cc(=O)[nH]3)c1S2)c1cnc(C)cn1 (stereo not shown) [Example 1-23-2, 6-(7-((3-(Ethyl(methyl)amino)-1-(5-methylpyrazin-2-yl)propyl)amino)thianthren-1-yl)-4-morpholinopyridin-2(1H)-one] | < 100 | – | 100 to 500 | –
6 | COC[C@H](CN1CCO[C@@H](C)C1)Nc1ccc2c(c1)Sc1cccc(-c3cc(N4CCOCC4)cc(=O)[nH]3)c1S2 [Example 1-46-6, 6-(7-(((S)-1-Methoxy-3-((S)-2-methylmorpholino)propan-2-yl)amino)thianthren-1-yl)-4-morpholino pyridin-2(1H)-one] | < 100 | – | < 100 | –
7 | O=c1cc(N2CCOCC2)cc(-c2cccc3c2Sc2ccc(NC4CCCC4N4CCOCC4)cc2S3)[nH]1 (single isomer, unassigned) [Example 1-16-1-2, 4-morpholino-6-(7-((2-morpholinocyclopentyl)amino)thianthren-1-yl)pyridin-2(1H)-one] | < 100 | – | < 100 | –
8 | Cc1cccc(CNc2ccc3c(c2)Sc2cccc(-c4cc(N5CCOCC5)cc(=O)[nH]4)c2S3)n1 [Example 1-12-2, 6-(7-(((6-Methylpyridin-2-yl)methyl)amino)thianthren-1-yl)-4-1-morpholino pyridin-2 (1H)-one] | < 100 | – | < 100 | –
9 | Cc1cnc(CNc2ccc3c(c2)Sc2cccc(-c4cc(N5CCOCC5)cc(=O)[nH]4)c2S3)cn1 [Example 1-12-62, 6-(7-(((5-Methylpyrazin-2-yl)methyl)amino)thianthren-1-yl)-4-morpholino pyridin-2 (1H)-one] | < 100 | – | 100 to 500 | –
10 | O=c1cc(N2CCOCC2)cc(-c2cccc3c2Oc2ccc(NCc4ccnc(Cl)c4)cc2C3)[nH]1 [Example 2-2-52, 6-(7-(((2-Chloropyridin-4-yl)methyl)amino)-9H-xanthen-4-yl)-4-morpholino pyridin-2 (1H)-one] | < 100 | – | 500 to 2000 | –
11 | O=c1cc(N2CCOCC2)cc(-c2cccc3c2Oc2ccc(NCc4cncc(Cl)c4)cc2C3)[nH]1 [Example 2-2-12, 6-(7-(((5-Chloropyridin-3-yl)methyl)amino)-9H-xanthen-4-yl)-4-morpholino pyridin-2 (1H)-one] | < 100 | – | 100 to 500 | –
12 | Cc1ccc(C(CCCN(C)C)Nc2ccc3c(c2)Sc2cccc(-c4cc(N5CCOCC5)cc(=O)[nH]4)c2S3)nc1 (single isomer, unassigned) [Example 1-51-3, 6-(7-((4-(Dimethylamino)-1-(5-methylpyridin-2-yl)butyl)amino)thianthren-1-yl)-4-morpholino pyridin-2(1H)-one] | < 100 | – | 100 to 500 | –
13 | Cc1cnc(C(C)Nc2ccc3c(c2)Sc2cccc(-c4cc(N5CCOCC5)cc(=O)[nH]4)c2S3)nc1 (single isomer, unassigned) [Example 1-12-139-2, 6-(7-((1-(5-methylpyrimidin-2-yl)ethyl)amino)thianthren-1-yl)-4-morpholinopyridin-2(1H)-one] | < 100 | – | – | 100 to 500
14 | Cc1cnc(C(CCN(C)C)Nc2ccc3c(c2)Sc2cccc(-c4cc(N5CCOCC5)cc(=O)[nH]4)c2S3)cn1 (stereo not shown) [Example 1-22-2, 6-(7-((3-(Dimethylamino)-1-(5-methylpyrazin-2-yl)propyl)amino)thianthren-1-yl)-4-morpholino pyridin-2 (1H)-one] | < 100 | – | 100 to 500 | –

Further lines, with some results ahead:

Row | IC50 (ATM) [nM] | IC50 ([1]; Homo sapiens, NCI-H460, 120 h, read-out: SER2) [nM] | Structure (SMILES) | SER2 (concentration at which the radiation sensitivity-enhancement ratio reaches 2) ([1]; Homo sapiens, NCI-H460, 120 h) [nM] | SER2 (concentration at which the radiation sensitivity-enhancement ratio reaches 2) [1] [nM]
15 | < 100 | – | CC(Nc1ccc2c(c1)Cc1cccc(-c3cc(N4CCOCC4)cc(=O)[nH]3)c1O2)c1nccc(CF)n1 (single isomer, unassigned) [Example 2-14-94-1, 6-(7-((1-(4-(fluoromethyl)pyrimidin-2-yl)ethyl)amino)-9H-xanthen-4-yl)-4-morpholinopyridin-2(1H)-one] | < 100 | –
16 | < 100 | – | COc1ccnc(CNc2ccc3c(c2)Cc2ccnc(-c4cc(N5CCOCC5)cc(=O)[nH]4)c2O3)c1 [Example 2-41-4, 6-(7-(((4-Methoxypyridin-2-yl)methyl)amino)-5H-chromeno[2,3-c]pyridin-1-yl)-4-morpholino pyridin-2 (1H)-one] | 100 to 500 | –
17 | < 100 | – | O=c1cc(N2CCOCC2)cc(-c2cccc3c2Oc2ccc(NCc4cc(-n5cccc5)ccn4)cc2C3)[nH]1 [Example 2-2-71, 6-(7-(((4-(1H-Pyrrol-1-yl)pyridin-2-yl)methyl)amino)-9H-xanthen-4-yl)-4-morpholino pyridin-2(1H)-one] | 100 to 500 | –
18 | < 100 | – | O=c1cc(N2CCOCC2)cc(-c2cccc3c2Oc2ccc(NCc4cncc(-n5cccn5)c4)cc2S3)[nH]1 [Example 4-4-9, 6-(8-(((5-(1H-Pyrazol-1-yl)pyridin-3-yl)methyl)amino)phenoxathiin-4-yl)-4-morpholino pyridin-2(1H)-one] | 100 to 500 | –
19 | < 100 | – | CCC(Nc1ccc2c(c1)Cc1cccc(-c3cc(N4CCOCC4)cc(=O)[nH]3)c1O2)c1cncc(OC)c1 (stereo not shown) [Example 2-14-16, 6-(7-((1-(5-Methoxypyridin-3-yl)propyl)amino)-9H-xanthen-4-yl)-4-morpholino pyridin-2 (1H)-one] | < 100 | –
20 | 100 to 500 | – | Cc1ccc(C(Nc2ccc3c(c2)Sc2cccc(-c4cc(N5CCOCC5)cc(=O)[nH]4)c2S3)[C@H]2CN(C(=O)CN(C)C)CCO2)nc1 (single isomer, unassigned) [Example 10-1] | < 100 | –
21 | < 100 | – | Cc1cccc(CNc2ccc3c(c2)Cc2ccc(F)c(-c4cc(N5CCOCC5)cc(=O)[nH]4)c2O3)n1 [Example 2-46-4, 6-(3-Fluoro-7-(((6-methylpyridin-2-yl)methyl)amino)-9H-xanthen-4-yl)-4-morpholinopyridin-2(1H)-one] | 100 to 500 | –
22 | < 100 | 100 to 500 | O=c1cc(N2CCOCC2)cc(-c2cccc3c2Oc2ccc(NCc4cc(-c5cccnc5)ccn4)cc2C3)[nH]1 [Example 2-2-72] | – | –
23 | < 100 | – | N#Cc1cccc(CNc2ccc3c(c2)Cc2cccc(-c4cc(N5CCOCC5)cc(=O)[nH]4)c2O3)n1 [Example 2-14-13, 6-(((5-(4-Morpholino-6-oxo-1,6-dihydropyridin-2-yl)-9H-xanthen-2-yl)amino)methyl) picolinonitrile] | 100 to 500 | –
